Test results published in paper PMC3905878 (2013).

Tests used:
[1] = tested on: T. tengcongensis preQ1-I riboswitch 33-mer (RNA, riboswitch) CUGGGUCGCAGUAACCCCAGUUAACAAAACAAG; assay: ITC; conditions: 100 mM NaCl, 6 mM MgCl2; 50 mM HEPES-NaOH pH 7.0, 25 °C; Table S3 prints 7.4 ± 2.3
[2] = tested on: Bsu preQ1 riboswitch (wild-type, smFRET construct) (RNA, riboswitch, 5-aminoallyl-uridine at 13) AGAGGUUCUAGCUACACCCUCUAUAAAAAACUAAGG; assay: smFRET, fraction of high-FRET state; conditions: 100 mM KCl, 1 mM MgCl2; 50 mM Tris-HCl pH 7.5, room temperature; apparent; high-FRET saturates near 50%
[3] = tested on: Tte preQ1 riboswitch (wild-type, smFRET construct) (RNA, riboswitch, 5-aminoallyl-uridine at 12) CUGGGUCGCAGUAACCCCAGUUAACAAAACAAGGG; assay: smFRET, fraction of high-FRET state; conditions: 100 mM KCl, 1 mM MgCl2; 50 mM Tris-HCl pH 7.5, room temperature; apparent; high-FRET saturates near 50%
[4] = tested on: Bsu A27C mutant (RNA, riboswitch, 5-aminoallyl-uridine at 13) AGAGGUUCUAGCUACACCCUCUAUAACAAACUAAGG; assay: smFRET, fraction of high-FRET state; conditions: 100 mM KCl, 1 mM MgCl2; 50 mM Tris-HCl pH 7.5, room temperature; apparent

For `NCc1c[nH]c2nc(N)[nH]c(=O)c12`, the KD [1] was 7.3 ± 2.3 nM, the K1/2 [2] was 134 ± 45 nM and the K1/2 [3] was 69 ± 22 nM. For the same compound, the K1/2 [4] was 11 µM.
